Experimental data taken from ChEMBL document CHEMBL4052758, “Design, synthesis, biological evaluation and molecular modelling studies of novel diaryl substituted pyrazolyl thiazolidinediones as potent pancreatic lipase inhibitors” (Bioorg Med Chem Lett, 2017).
One block for each molecule: values may come before it.

Legend:
[1] = organism: Sus scrofa; assay: Inhibition of porcine pancreatic lipase type 2 assessed as residual enzyme activity using tributyrin as substrate preincubated for 30 mins followed by substrate addition measured for 5 mins
[2] = target: T1, Pancreatic triacylglycerol lipase (Sus scrofa, UniProt P00591); assay: Inhibition of porcine pancreatic lipase using p-nitrophenyl butyrate as substrate preincubated for 5 mins followed by substrate addition measured after 5 mins by spectrophotometric analysis
T1 sequence (P00591 whole entry): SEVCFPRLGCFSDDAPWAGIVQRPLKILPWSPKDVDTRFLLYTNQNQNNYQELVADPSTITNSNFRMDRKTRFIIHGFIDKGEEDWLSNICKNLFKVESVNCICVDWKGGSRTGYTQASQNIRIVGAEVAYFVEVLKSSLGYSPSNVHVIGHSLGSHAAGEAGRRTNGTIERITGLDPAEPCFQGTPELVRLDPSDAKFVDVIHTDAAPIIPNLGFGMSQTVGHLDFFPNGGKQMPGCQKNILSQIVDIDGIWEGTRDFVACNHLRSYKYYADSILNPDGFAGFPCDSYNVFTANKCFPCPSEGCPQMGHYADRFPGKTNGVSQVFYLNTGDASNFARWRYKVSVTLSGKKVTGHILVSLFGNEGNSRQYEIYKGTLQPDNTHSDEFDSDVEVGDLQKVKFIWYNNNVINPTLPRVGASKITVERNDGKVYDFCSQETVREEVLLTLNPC

[3] = target: T1, Pancreatic triacylglycerol lipase; assay: Binding affinity to porcine pancreatic lipase using p-nitrophenyl butyrate as substrate by dixon plot analysis
[4] = compound: O=C1S/C(=C\c2cn(-c3ccccc3)nc2-c2ccc(Cl)cc2)C(=O)N1Cc1ccc([N+](=O)[O-])cc1; assay: Reversible competitive inhibition of porcine pancreatic lipase assessed as Km for substrate at 10 uM in presence of varying levels of p-nitophenyl butyrate by double reciprocal Lineweaver-burk plot analysis (reference value: 69.32 microM); details: Sus scrofa
[5] = compound: O=C1S/C(=C\c2cn(-c3ccccc3)nc2-c2ccc(Cl)cc2)C(=O)N1Cc1ccc([N+](=O)[O-])cc1; assay: Reversible competitive inhibition of porcine pancreatic lipase assessed as Km for substrate at 5 uM in presence of varying levels of p-nitophenyl butyrate by double reciprocal Lineweaver-burk plot analysis (reference value: 69.32 microM); details: Sus scrofa
[6] = compound: O=C1S/C(=C\c2cn(-c3ccccc3)nc2-c2ccc(Cl)cc2)C(=O)N1Cc1ccc([N+](=O)[O-])cc1; assay: Reversible competitive inhibition of porcine pancreatic lipase assessed as Km for substrate at 2.5 uM in presence of varying levels of p-nitophenyl butyrate by double reciprocal Lineweaver-burk plot analysis (reference value: 69.32 microM); details: Sus scrofa
[7] = compound: O=C1S/C(=C\c2cn(-c3ccccc3)nc2-c2ccc(Cl)cc2)C(=O)N1Cc1ccc([N+](=O)[O-])cc1; assay: Reversible competitive inhibition of porcine pancreatic lipase assessed as Vmax for substrate at 10 uM in presence of varying levels of p-nitophenyl butyrate by double reciprocal Lineweaver-burk plot analysis (reference value: 0.0545 microM/min); details: Sus scrofa
[8] = compound: O=C1S/C(=C\c2cn(-c3ccccc3)nc2-c2ccc(Cl)cc2)C(=O)N1Cc1ccc([N+](=O)[O-])cc1; assay: Reversible competitive inhibition of porcine pancreatic lipase assessed as Vmax for substrate at 5 uM in presence of varying levels of p-nitophenyl butyrate by double reciprocal Lineweaver-burk plot analysis (reference value: 0.0545 microM/min); details: Sus scrofa
[9] = compound: O=C1S/C(=C\c2cn(-c3ccccc3)nc2-c2ccc(Cl)cc2)C(=O)N1Cc1ccc([N+](=O)[O-])cc1; assay: Reversible competitive inhibition of porcine pancreatic lipase assessed as Vmax for substrate at 2.5 uM in presence of varying levels of p-nitophenyl butyrate by double reciprocal Lineweaver-burk plot analysis (reference value: 0.0545 microM/min); details: Sus scrofa

XI50 [1]: 19.3
IC50 [2]: 10.3 µM
Molecule: O=C1NC(=O)/C(=C/c2cn(-c3ccccc3)nc2-c2ccc(Cl)cc2)S1

XI50 [1]: 24.4
IC50 [2]: 13 µM
Molecule: COc1ccc(-c2nn(-c3ccccc3)cc2/C=C2\SC(=O)NC2=O)cc1

XI50 [1]: 13
IC50 [2]: 5.42 µM
Molecule: O=C1S/C(=C\c2cn(-c3ccccc3)nc2-c2ccc(F)cc2)C(=O)N1Cc1ccc([N+](=O)[O-])cc1

XI50 [1]: 19.3
IC50 [2]: 9.87 µM
Molecule: Cc1ccc(-c2nn(-c3ccccc3)cc2/C=C2\SC(=O)N(Cc3ccc([N+](=O)[O-])cc3)C2=O)cc1

XI50 [1]: 27.2
IC50 [2]: 15.1 µM
Molecule: Cc1ccc(-c2nn(-c3ccccc3)cc2/C=C2\SC(=O)NC2=O)cc1

XI50 [1]: 3.72
Molecule: CCCCCCCCCCC[C@@H](C[C@@H]1OC(=O)[C@H]1CCCCCC)OC(=O)[C@H](CC(C)C)NC=O

XI50 [1]: 21.8
IC50 [2]: 12.5 µM
Molecule: O=C1S/C(=C\c2cn(-c3ccccc3)nc2-c2ccccc2)C(=O)N1Cc1ccc([N+](=O)[O-])cc1

XI50 [1]: 18.7
IC50 [2]: 8.44 µM
Molecule: O=C1S/C(=C\c2cn(-c3ccccc3)nc2-c2ccc([N+](=O)[O-])cc2)C(=O)N1Cc1ccc([N+](=O)[O-])cc1

XI50 [1]: 65.1
IC50 [2]: 18.8 µM
Molecule: O=C1NC(=O)/C(=C/c2cn(-c3ccccc3)nc2-c2ccccc2)S1

Ki [3]: 14.4 µM
XI50 [1]: 10
IC50 [2]: 4.81 µM
Molecule: O=C1S/C(=C\c2cn(-c3ccccc3)nc2-c2ccc(Cl)cc2)C(=O)N1Cc1ccc([N+](=O)[O-])cc1

XI50 [1]: 39.5
IC50 [2]: 17.3 µM
Molecule: O=C1NC(=O)/C(=C/c2cn(-c3ccccc3)nc2-c2ccc([N+](=O)[O-])cc2)S1

XI50 [1]: 18.1
IC50 [2]: 9.4 µM
Molecule: COc1ccc(-c2nn(-c3ccccc3)cc2/C=C2\SC(=O)N(Cc3ccc([N+](=O)[O-])cc3)C2=O)cc1

XI50 [1]: 25.4
IC50 [2]: 12.9 µM
Molecule: O=C1NC(=O)/C(=C/c2cn(-c3ccccc3)nc2-c2ccc(F)cc2)S1

B1: Pancreatic triacylglycerol lipase (Sus scrofa), P00591 (protein)
chain: T1 sequence (P00591 whole entry)
Km [4]: 165 µM
Km [5]: 145 µM
Km [6]: 125 µM
Vmax [7]: 0.0566 µM/min
Vmax [8]: 0.0557 µM/min
Vmax [9]: 0.0565 µM/min
